One test concerns the target 5-HT2B (Homo sapiens (Human), UniProt P41595). Kind of test: 5-HT2B Gq-mediated calcium flux functional assay. Type of test: cell-based.
For another test, the target named is 5-HT1A (Homo sapiens (Human), UniProt P08908). Kind of test: 5-HT1A Gi/o-mediated cAMP inhibition, GloSensor assay. Type of test: cell-based.
A further test deals with 5-HT2C (Homo sapiens (Human), UniProt P28335). Kind of test: 5-HT2C Gq-mediated calcium flux functional assay. The class given is cell-based.
Sequence of 5-HT2C (P28335 whole entry, looked up): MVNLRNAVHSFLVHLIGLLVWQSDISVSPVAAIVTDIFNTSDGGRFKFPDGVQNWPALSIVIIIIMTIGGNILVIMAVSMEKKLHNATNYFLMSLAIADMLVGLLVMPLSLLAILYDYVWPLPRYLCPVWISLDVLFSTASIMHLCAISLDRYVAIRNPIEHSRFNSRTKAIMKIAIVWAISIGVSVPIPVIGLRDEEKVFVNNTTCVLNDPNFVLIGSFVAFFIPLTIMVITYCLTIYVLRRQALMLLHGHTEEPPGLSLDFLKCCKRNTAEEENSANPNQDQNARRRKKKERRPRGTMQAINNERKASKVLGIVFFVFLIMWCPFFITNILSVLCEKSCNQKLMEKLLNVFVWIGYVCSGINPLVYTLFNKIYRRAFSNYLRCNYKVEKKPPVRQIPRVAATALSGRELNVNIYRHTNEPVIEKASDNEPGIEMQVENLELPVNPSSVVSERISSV
Another test concerns the target 5-HT2A (Homo sapiens (Human), UniProt P28223). Put plainly: 5-HT2A Gq-mediated calcium flux functional assay. Type of test: cell-based.
For the next test, the target named is Serotonin 5-HT2A (human) (Homo sapiens (Human), UniProt P28223). Kind of test: 5-HT2A receptor binding, [3H]-ketanserin competition in membrane fractions. Conditions: for 5-HT2A pKi ± SEM: 1 nM [3H]-ketanserin, Cheng-Prusoff, N=1-3.
Setting [1] is: cAMP inhibition, 0.2 μM isoproterenol, IA = Inactive.

Read-outs that look alike come from different tables or passages of the source.

Sequence of 5-HT2B (P41595 whole entry): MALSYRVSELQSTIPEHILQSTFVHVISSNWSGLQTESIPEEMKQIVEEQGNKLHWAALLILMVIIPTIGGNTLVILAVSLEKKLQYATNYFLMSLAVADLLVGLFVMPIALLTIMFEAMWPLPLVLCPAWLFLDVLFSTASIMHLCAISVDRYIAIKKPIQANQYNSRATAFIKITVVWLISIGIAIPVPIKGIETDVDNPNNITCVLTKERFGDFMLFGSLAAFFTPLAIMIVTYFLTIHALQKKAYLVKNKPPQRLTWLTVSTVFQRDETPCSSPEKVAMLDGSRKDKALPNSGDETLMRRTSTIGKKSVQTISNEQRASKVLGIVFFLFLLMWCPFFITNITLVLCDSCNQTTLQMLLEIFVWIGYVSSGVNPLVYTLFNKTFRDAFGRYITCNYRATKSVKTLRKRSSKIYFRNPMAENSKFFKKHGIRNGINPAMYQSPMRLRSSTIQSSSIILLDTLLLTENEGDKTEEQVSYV

Turning to `CC(C)N(CCc1c[nH]c2ccc(F)cc12)C1CCC1` [compound 40, N-(2-(5-fluoro-1H-indol-3-yl)ethyl)-N-isopropylcyclobutanamine], the EC50 on 5-HT2B is 1.1 nM; on 5-HT1A, 66.1 nM; on 5-HT2C, 112 nM; at 5-HT2A, 0.891 nM. In addition, the “5-HT2B-Ca2+ FLUX Emax (% 5-HT)” value at 5-HT2B (IA = Inactive, N=1-3) was found to be 106.7 ± 1.5 % 5-HT. The “5-HT1A-cAMP Emax (% 5-HT)” value at 5-HT1A (setting [1]) was found to be 102.1 ± 1.7 % 5-HT. In addition, the “5-HT2C-Ca2+ FLUX Emax (% 5-HT)” value at 5-HT2C (IA = Inactive, N=1-3) was 94.9 ± 2.0 % 5-HT. For the same compound, the “5-HT2A-Ca2+ FLUX Emax (% 5-HT)” value at 5-HT2A (IA = Inactive, N=1-3) turned out to be 102.5 ± 2.0 % 5-HT. Further, the “5-HT2A pKi ± SEM” value on Serotonin 5-HT2A (human) came out at 6.06 ± 0.05.
Take `CCCN(CC)CCc1c[nH]c2ccc(F)cc12` [Example 6, N-ethyl-N-(2-(5-fluoro-1H-indol-3-yl)ethyl)propan-1-amine]: the EC50 at 5-HT2B was 1.1 nM; at 5-HT1A, 49 nM; at 5-HT2C, 1.78 nM; on 5-HT2A, 0.776 nM. Also, the “5-HT2B-Ca2+ FLUX Emax (% 5-HT)” value at 5-HT2B (IA = Inactive, N=1-3) turned out to be 101.2 ± 0.7 % 5-HT. The “5-HT1A-cAMP Emax (% 5-HT)” value on 5-HT1A (setting [1]) came to 90.5 ± 1.8 % 5-HT. Moreover, the “5-HT2C-Ca2+ FLUX Emax (% 5-HT)” value at 5-HT2C (IA = Inactive, N=1-3) amounted to 111.7 ± 2.5 % 5-HT. For the same compound, the “5-HT2A-Ca2+ FLUX Emax (% 5-HT)” value at 5-HT2A (IA = Inactive, N=1-3) was 103.5 ± 0.8 % 5-HT. Also, at Serotonin 5-HT2A (human), the “5-HT2A pKi ± SEM” value amounted to 6.06 ± 0.13.
For `CN(C)CCc1c[nH]c2ccc(F)cc12` [Compound 5-F-DMT], on 5-HT2B (IA = Inactive, N=1-3), the “5-HT2B-Ca2+ FLUX Emax (% 5-HT)” value is given as 61.1 ± 2.0 % 5-HT and the “5-HT2B-Ca2+ FLUX pEC50” value came to 8.70 ± 0.11. For the same compound, on 5-HT1A (setting [1]), the “5-HT1A-cAMP Emax (% 5-HT)” value was 94.2 ± 3.4 % 5-HT and the “5-HT1A-cAMP pEC50” value was 6.69 ± 0.08. Besides, on 5-HT2C (IA = Inactive, N=1-3), the “5-HT2C-Ca2+ FLUX Emax (% 5-HT)” value turned out to be 100.3 ± 1.8 % 5-HT and the “5-HT2C-Ca2+ FLUX pEC50” value stood at 8.8 ± 0.06. On 5-HT2A (IA = Inactive, N=1-3), the “5-HT2A-Ca2+ FLUX Emax (% 5-HT)” value is given as 96.6 ± 1.0 % 5-HT and the “5-HT2A-Ca2+ FLUX pEC50” value is listed as 8.70 ± 0.03. Besides, the “5-HT2A pKi ± SEM” value on Serotonin 5-HT2A (human) was 6.65.
Consider `CCCN(CCC)CCc1c[nH]c2ccc(F)cc12` [Example 5, N-(2-(5-fluoro-1H-indol-3-yl)ethyl)-N-propylpropan-1-amine], for which the EC50 on 5-HT2B is 0.759 nM; at 5-HT1A, 74.1 nM; on 5-HT2C it was 3.39 nM; at 5-HT2A it was 0.724 nM. Also, the “5-HT2B-Ca2+ FLUX Emax (% 5-HT)” value on 5-HT2B (IA = Inactive, N=1-3) was found to be 104.1 ± 0.7 % 5-HT. For the same compound, at 5-HT1A (setting [1]), the “5-HT1A-cAMP Emax (% 5-HT)” value is 87.5 ± 1.6 % 5-HT. For the same compound, the “5-HT2C-Ca2+ FLUX Emax (% 5-HT)” value at 5-HT2C (IA = Inactive, N=1-3) came out at 109.3 ± 3.1 % 5-HT. Moreover, the “5-HT2A-Ca2+ FLUX Emax (% 5-HT)” value on 5-HT2A (IA = Inactive, N=1-3) is given as 106.7 ± 0.8 % 5-HT. Besides, the “5-HT2A pKi ± SEM” value at Serotonin 5-HT2A (human) came out at 6.20.
On to `C=CCN(CCc1c[nH]c2ccc(F)cc12)C(C)CC` (stereo not drawn) [compound 16, N-allyl-N-(2-(5-fluoro-1H-indol-3-yl)ethyl)butan-2-amine], for which the EC50 on 5-HT2B is 2.09 nM; at 5-HT1A it was 166 nM; at 5-HT2C it was 49 nM; at 5-HT2A, 0.871 nM. The “5-HT2B-Ca2+ FLUX Emax (% 5-HT)” value on 5-HT2B (IA = Inactive, N=1-3) is reported as 97.4 ± 1.7 % 5-HT. Besides, the “5-HT1A-cAMP Emax (% 5-HT)” value on 5-HT1A (setting [1]) came out at 94.2 ± 2.2 % 5-HT. Also, the “5-HT2C-Ca2+ FLUX Emax (% 5-HT)” value on 5-HT2C (IA = Inactive, N=1-3) came out at 84.3 ± 3.4 % 5-HT. Further, the “5-HT2A-Ca2+ FLUX Emax (% 5-HT)” value at 5-HT2A (IA = Inactive, N=1-3) is on record as 103.4 ± 1.8 % 5-HT. Also, at Serotonin 5-HT2A (human), the Ki was 1660 nM.
For the compound `CCN(C)CCc1c[nH]c2ccc(F)cc12` [Example 12, N-ethyl-2-(5-fluoro-1H-indol-3-yl)-N-methylethan-1-amine], the EC50 on 5-HT2B is 2.29 nM; on 5-HT1A, 75.9 nM; at 5-HT2C, 1.58 nM; on 5-HT2A, 1.74 nM. Further, the “5-HT2B-Ca2+ FLUX Emax (% 5-HT)” value at 5-HT2B (IA = Inactive, N=1-3) was determined as 65.8 ± 1.6 % 5-HT. Moreover, the “5-HT1A-cAMP Emax (% 5-HT)” value at 5-HT1A (setting [1]) is recorded as 91.1 ± 1.7 % 5-HT. In addition, the “5-HT2C-Ca2+ FLUX Emax (% 5-HT)” value at 5-HT2C (IA = Inactive, N=1-3) came to 117.2 ± 2.5 % 5-HT. Moreover, the “5-HT2A-Ca2+ FLUX Emax (% 5-HT)” value at 5-HT2A (IA = Inactive, N=1-3) was found to be 101.8 ± 1.1 % 5-HT. Besides, the “5-HT2A pKi ± SEM” value on Serotonin 5-HT2A (human) came out at 6.66 ± 0.12.
In the case of `CN(CCc1c[nH]c2ccc(F)cc12)C1CSC1` [compound 20, N-(2-(5-fluoro-1H-indol-3-yl)ethyl)-N-methylthietan-3-amine], the “5-HT2B-Ca2+ FLUX Emax (% 5-HT)” value on 5-HT2B (IA = Inactive, N=1-3) is 17.3 ± 1.1 % 5-HT. Also, the EC50 is 2.4 nM at 5-HT2B (IA = Inactive, N=1-3, read-out: 5-HT2B-Ca2+ FLUX pEC50 (converted)); 794 nM on 5-HT1A; 468 nM at 5-HT2C (IA = Inactive, N=1-3, read-out: 5-HT2C-Ca2+ FLUX pEC50 (converted)); 28.8 nM at 5-HT2A (IA = Inactive, N=1-3, read-out: 5-HT2A-Ca2+ FLUX pEC50 (converted)). For the same compound, the “5-HT1A-cAMP Emax (% 5-HT)” value on 5-HT1A (setting [1]) is 93.1 ± 2.5 % 5-HT. The “5-HT2C-Ca2+ FLUX Emax (% 5-HT)” value on 5-HT2C (IA = Inactive, N=1-3) came out at 55.0 ± 2.8 % 5-HT. For the same compound, the “5-HT2A-Ca2+ FLUX Emax (% 5-HT)” value at 5-HT2A (IA = Inactive, N=1-3) is 61.8 ± 3.2 % 5-HT.
With `CCCN(CC)CCc1c[nH]c2c(F)c(F)ccc12` [compound 82, N-(2-(6,7-difluoro-1H-indol-3-yl)ethyl)-N-ethylpropan-1-amine], the results for the EC50 on 5-HT2B, on 5-HT2C and at 5-HT2A were 66.1 nM, 195 nM and 10.5 nM, respectively. Besides, the “5-HT2B-Ca2+ FLUX Emax (% 5-HT)” value on 5-HT2B (IA = Inactive, N=1-3) is listed as 86.3 ± 0.8 % 5-HT. Besides, the “5-HT2C-Ca2+ FLUX Emax (% 5-HT)” value at 5-HT2C (IA = Inactive, N=1-3) is 89.6 ± 1.7 % 5-HT. For the same compound, the “5-HT2A-Ca2+ FLUX Emax (% 5-HT)” value on 5-HT2A (IA = Inactive, N=1-3) is reported as 90.4 ± 0.7 % 5-HT. For the same compound, the “5-HT2A pKi ± SEM” value on Serotonin 5-HT2A (human) stood at 6.52.

(Values after patent publication US20240286998A1, “F[…], ANALOGUES THEREOF, AND METHODS USING SAME” (Saint Joseph's University, priority 2021, published 2024).)
